# Assays:
# [1] = test system: Echinochloa crus-galli; test: Post-emergence herbicidal effect; assay type: in vivo; conditions: Dosage 320 g/ha, one-leaf stage, visual scoring after ca. 3 weeks vs untreated controls, 100% = plants have died
# Description: (§1) The following abbreviations are used in the tables below: [table] 2. Post-Emergence Herbicidal Effect and Crop Plant Compatibility Seeds of monocotyledonous or dicotyledonous weed plants or crop plants are planted in wood-fiber pots in sandy loam, covered with earth and grown in a greenhouse under good growth conditions. 2 to 3 weeks after sowing, the test plants are treated in the one-leaf stage. The compounds according to the invention, formulated in the form of wettable powders (WP) or as emulsion concentrates (EC), are then sprayed onto the green plant parts as aqueous suspension or emulsion at a water application rate of 600 to 800 l/ha (converted) with the addition of 0.2% of wetting agent. The dosage of the compounds according to the invention is given in grams per hectare. After ca. 3 weeks' standing time of the test plants in the greenhouse under optimum growth conditions, the effect of the preparations is scored visually in comparison with untreated controls (herbicidal effect in percent (%): 100% effect=plants have died, 0% effect=as control plants).
# [2] = test system: Stellaria media; test: Post-emergence herbicidal effect; assay type: in vivo; conditions: Dosage 320 g/ha, one-leaf stage, visual scoring after ca. 3 weeks vs untreated controls, 100% = plants have died
# Description: as §1
# [3] = test system: Lolium multiflorum; test: Post-emergence herbicidal effect; assay type: in vivo; conditions: Dosage 320 g/ha, one-leaf stage, visual scoring after ca. 3 weeks vs untreated controls, 100% = plants have died
# Description: as §1
# [4] = test system: Matricaria inodora; test: Post-emergence herbicidal effect; assay type: in vivo; conditions: Dosage 320 g/ha, one-leaf stage, visual scoring after ca. 3 weeks vs untreated controls, 100% = plants have died
# Description: as §1
# [5] = test system: Veronica persica; test: Post-emergence herbicidal effect; assay type: in vivo; conditions: Dosage 320 g/ha, one-leaf stage, visual scoring after ca. 3 weeks vs untreated controls, 100% = plants have died
# Description: as §1
# [6] = logp (HCOOH), chemicophysical data
# [7] = test system: Alopecurus myosuroides; test: Post-emergence herbicidal effect; assay type: in vivo; conditions: Dosage 320 g/ha, one-leaf stage, visual scoring after ca. 3 weeks vs untreated controls, 100% = plants have died
# Description: as §1
# [8] = test system: Amaranthus retroflexus; test: Post-emergence herbicidal effect; assay type: in vivo; conditions: Dosage 320 g/ha, one-leaf stage, visual scoring after ca. 3 weeks vs untreated controls, 100% = plants have died
# Description: as §1
# [9] = test system: Echinochloa crus-galli; test: Pre-emergence herbicidal effect; assay type: in vivo; conditions: Dosage 320 g/ha, visual scoring after 3 weeks vs untreated controls, 100% = plants have died
# How it was run: (§2)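 Damage rated visually after 3 weeks in greenhouse relative to untreated plants, 100% meaning plants died and 0% unaffected. Compounds, dosed in grams per hectare as WP or EC in 600 to 800 l/ha water plus 0.2% wetting agent, were applied pre-emergence to soil over seeds sown in sandy loam.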
# [10] = test system: Stellaria media; test: Pre-emergence herbicidal effect; assay type: in vivo; conditions: Dosage 320 g/ha, visual scoring after 3 weeks vs untreated controls, 100% = plants have died
# How it was run: as §2
# [11] = test system: Lolium multiflorum; test: Pre-emergence herbicidal effect; assay type: in vivo; conditions: Dosage 320 g/ha, visual scoring after 3 weeks vs untreated controls, 100% = plants have died
# How it was run: as §2
# [12] = test system: Cyperus esculentus; test: Pre-emergence herbicidal effect; assay type: in vivo; conditions: Dosage 320 g/ha, visual scoring after 3 weeks vs untreated controls, 100% = plants have died
# How it was run: as §2
# [13] = test system: Alopecurus myosuroides; test: Pre-emergence herbicidal effect; assay type: in vivo; conditions: Dosage 320 g/ha, visual scoring after 3 weeks vs untreated controls, 100% = plants have died
# How it was run: as §2
# [14] = test system: Matricaria inodora; test: Pre-emergence herbicidal effect; assay type: in vivo; conditions: Dosage 320 g/ha, visual scoring after 3 weeks vs untreated controls, 100% = plants have died
# How it was run: as §2
# [15] = test system: Amaranthus retroflexus; test: Pre-emergence herbicidal effect; assay type: in vivo; conditions: Dosage 320 g/ha, visual scoring after 3 weeks vs untreated controls, 100% = plants have died
# How it was run: as §2
# [16] = test system: Setaria viridis; test: Pre-emergence herbicidal effect; assay type: in vivo; conditions: Dosage 320 g/ha, visual scoring after 3 weeks vs untreated controls, 100% = plants have died
# How it was run: as §2
# [17] = test system: Viola tricolor; test: Pre-emergence herbicidal effect; assay type: in vivo; conditions: Dosage 320 g/ha, visual scoring after 3 weeks vs untreated controls, 100% = plants have died
# How it was run: as §2
# [18] = test system: Veronica persica; test: Pre-emergence herbicidal effect; assay type: in vivo; conditions: Dosage 320 g/ha, visual scoring after 3 weeks vs untreated controls, 100% = plants have died
# How it was run: as §2
# [19] = test system: Abutilon theophrasti; test: Post-emergence herbicidal effect; assay type: in vivo; conditions: Dosage 320 g/ha, one-leaf stage, visual scoring after ca. 3 weeks vs untreated controls, 100% = plants have died
# Description: as §1
# [20] = test system: Polygonum convolvulus; test: Post-emergence herbicidal effect; assay type: in vivo; conditions: Dosage 320 g/ha, one-leaf stage, visual scoring after ca. 3 weeks vs untreated controls, 100% = plants have died
# Description: as §1
# [21] = test system: Viola tricolor; test: Post-emergence herbicidal effect; assay type: in vivo; conditions: Dosage 320 g/ha, one-leaf stage, visual scoring after ca. 3 weeks vs untreated controls, 100% = plants have died
# Description: as §1
# [22] = test system: PHBPU; test: Post-emergence herbicidal effect; assay type: in vivo; conditions: Dosage 320 g/ha, one-leaf stage, visual scoring after ca. 3 weeks vs untreated controls, 100% = plants have died
# Description: as §1, with “2.” for “The following abbreviations are used in the tables below: [table] 2.”
# [23] = test system: Abutilon theophrasti; test: Pre-emergence herbicidal effect; assay type: in vivo; conditions: Dosage 320 g/ha, visual scoring after 3 weeks vs untreated controls, 100% = plants have died
# How it was run: as §2
# [24] = test system: Polygonum convolvulus; test: Pre-emergence herbicidal effect; assay type: in vivo; conditions: Dosage 320 g/ha, visual scoring after 3 weeks vs untreated controls, 100% = plants have died
# How it was run: as §2
# [25] = test system: Avena fatua; test: Pre-emergence herbicidal effect; assay type: in vivo; conditions: Dosage 320 g/ha, visual scoring after 3 weeks vs untreated controls, 100% = plants have died
# How it was run: as §2
# [26] = test system: Setaria viridis; test: Post-emergence herbicidal effect; assay type: in vivo; conditions: Dosage 320 g/ha, one-leaf stage, visual scoring after ca. 3 weeks vs untreated controls, 100% = plants have died
# Description: as §1
Compound,Post-emergence herbicidal effect ECHCG [1] [%],Post-emergence herbicidal effect STEME [2] [%],Post-emergence herbicidal effect LOLMU [3] [%],Post-emergence herbicidal effect MATIN [4] [%],Post-emergence herbicidal effect VERPE [5] [%],Post-emergence herbicidal effect ALOMY [7] [%],Post-emergence herbicidal effect AMARE [8] [%],Pre-emergence herbicidal effect ECHCG [9] [%],Pre-emergence herbicidal effect STEME [10] [%],Pre-emergence herbicidal effect LOLMU [11] [%],Pre-emergence herbicidal effect ALOMY [13] [%],Pre-emergence herbicidal effect MATIN [14] [%],Pre-emergence herbicidal effect AMARE [15] [%],Pre-emergence herbicidal effect SETVI [16] [%],Pre-emergence herbicidal effect VIOTR [17] [%],Pre-emergence herbicidal effect VERPE [18] [%],Post-emergence herbicidal effect ABUTH [19] [%],Post-emergence herbicidal effect POLCO [20] [%],Post-emergence herbicidal effect VIOTR [21] [%],Post-emergence herbicidal effect PHBPU [22] [%],other results
Cc1nc(NC2CCc3ccccc32)nc(N)c1C#N (racemic) [Example 1.24],90,100,100,80,90,–,–,–,–,–,–,–,–,–,–,–,–,–,–,–,–
Cc1nc(NC2CCOc3ccccc32)nc(N)c1C#N (racemic) [Example 1.25],90,100,95,–,95,90,90,100,100,100,100,100,100,100,90,100,–,–,–,–,"logp (HCOOH) ([6]; HCOOH): solid, m.p.: 213.3° C.; logp (HCOOH): 1.55; 1H-NMR (CDCl3, 400 MHZ, δ in ppm): 2.10; Pre-emergence herbicidal effect CYPES [12]: 100%"
Cc1nc(N[C@@H]2CCOc3c(F)cccc32)nc(N)c1C#N [Example 1.26],90,90,90,80,95,85,85,100,100,100,100,100,100,100,100,100,80,80,85,90,Pre-emergence herbicidal effect ABUTH [23]: 80%; Pre-emergence herbicidal effect POLCO [24]: 90%; Pre-emergence herbicidal effect AVEFA [25]: 90%
CC[C@H]1Cc2ccc(C)cc2[C@@H]1Nc1nc(C)c(C#N)c(N)n1 [Example 1.96],85,95,90,–,85,80,85,100,100,100,100,100,100,100,100,100,85,85,85,90,Post-emergence herbicidal effect SETVI [26]: 85%; Pre-emergence herbicidal effect POLCO [24]: 100%; Pre-emergence herbicidal effect AVEFA [25]: 80%
"Cc1ccc2c(c1)[C@H](Nc1ncc(C#C[Si](C)(C)C)c(N)n1)[C@@H](C)C2 [Example 1.98, N2-[(1R,2S)-2,6-Dimethyl-2,3-dihydro-1H-inden-1-yl]-5-[(trimethylsilyl)ethynyl]-pyrimidine-2,4-diamine]",–,–,–,–,–,–,–,–,100,–,–,80,80,80,100,100,–,–,–,–,chromatographic logP ([6]; HCOOH (formic acid)): 2.28; Pre-emergence herbicidal effect CYPES [12]: 100%
Cc1ccc2c(c1)[C@H](Nc1nc(C)c([N+](=O)[O-])c(N)n1)[C@@H](C)C2 [Example 1.120],100,85,–,80,90,–,90,100,100,90,100,100,100,100,100,100,90,80,90,100,Post-emergence herbicidal effect SETVI [26]: 85%; Pre-emergence herbicidal effect POLCO [24]: 100%; Pre-emergence herbicidal effect AVEFA [25]: 80%

# Source: patent US8329717B2, “Pyrimidine derivatives and their use for controlling undesired plant growth” (Bayer Cropscience AG, priority 2008, dated 2012)
